Reference: patent publication US7704957B2, “Composition for inhibiting HIV activity extracted from Paecilomyces sp. (Tochu-kaso) J300” (priority 2001, dated 2010)
Residues, ends and D or L forms follow the SMILES beside them.

What was measured:
HIV [1] = assay: Functional mechanism: sample added 30 minutes before or after virus infection; type: cell-based; conditions: sample 30 minutes before infection, FIG. 7
Method: To determine whether a material functions or not in the cell, the mixture of cell and sample is incubated for 30 minutes then infected with virus. […] In these case, the samples permeate the membranes of the cell and suppress the propagation of the virus in the cell, as well as the samples attach on the surface of the cell and suppress the introduction of the virus into the cell (FIG. 7)
In addition, after the cell was infected with the virus and incubated for 30 minutes, then the extracts of Tochu-kaso J300 were administered. If the functional site of the active material is out of the cell, the anti-HIV activity would not be detected; on the other hand, if the functional site is in the cell, the activity would be detected. […] This proves that the active material suppresses the propagation of the virus in the cell, even when the sample is administered after a long time after the infection of the cell with virus (FIG. 8).

HIV [2] = assay: Anti-HIV activity: survivability of cells protected from destruction by HIV, XTT method (National Cancer Institute method); type: cell-based; conditions: fractions Dong 1-2-1 to 1-2-8
Method: In FIGS. 2 to 8, 11 and 18, the term “Infected” (diamond mark ♦) is for the samples that a reagent is applied after the cells are infected with the virus to observe the protection of cells from the cell destruction of HIV. The term “Uninfected” (square mark □) is for the samples that only reagent is added with different concentration to observe the toxicity of the reagent according to the concentration. Further, X axis represents the concentration of the sample and Y axis represents the survivability of the cells in percentages (%).
In the present invention, the measurement of anti-HIV activity followed the method of National Cancer Institute (U.S.A.). In the method, survivability of cells that are protected from the destruction due to HIV was measured when the cells were treated with the active component of the present invention to determine the anti-HIV activity of the material.
In detail, the mixture of cell+HIV+sample (active compound) was cultured for 1 week, and then cell toxicity was measured by XTT method. […]
In this example, colorimetric assay was adopted to observe the growth and death of the cells, which uses the fact that tetrazole salt (MTT, XTT, WST-1) is broken only in the living cell to form non-soluble formazan structure. By quantitating the amount of the formazane wih ELISA method, the amount of living cell is measured quantitatively. […]

With `CC(C)CC(NC(=O)C1CCCN1)C(=O)O` (stereo not drawn) [Dong 1-2-5, 4-methyl-2-[(pyrolidine-2-carbonyl)-2-amino]pentanoic acid] (H-Pro-Leu-OH; configuration not given here) the “activity when sample is added to the cell and virus infected 30 minutes later” value (HIV [1]) was “showed activity” and the “anti-AIDS activity of fractions of Dong 1-2” value (HIV [2]) was “more intense activity compared to others”.
`COC(C)C1NC(=O)C(CCC(=O)O)NC1=O` (stereo not shown) [Dong 1-2-4, 3-[5-(methoxy-ethyl)-3,6-dioxo-piperazine-2-yl]propionic acid] was tested, and the “activity when sample is added to the cell and virus infected 30 minutes later” value (HIV [1]) was “showed activity” and the “anti-AIDS activity of fractions of Dong 1-2” value (HIV [2]) was “more intense activity compared to others”.
